# Reference: patent US11414454B2, “Compositions, methods, and systems for affinity-based protein identification and purification” (Auctus Biologies, Inc., priority 2017, dated 2022)
# No end group written: not given here.
# Experiments:
# [1] = biological target: RPtag (large); assay: Fluorescence anisotropy Kd of rhodamine labeled RPtag (small) peptides for RPtag (large); format: binding, Thermoanaerobacter tengcongensis; conditions: for Kd: N-terminal rhodamine tagged peptide, unlabeled RPtag (large), 50 mM Tris pH 8.0, 0.005% Tween 20, mean ± SE; for effect of alanine mutation on binding affinity to RPtag(large): alanine scanning versus native
# Method: 50 nM of RP-Tag Small (see Sequence 3, below) with an N-terminal Rhodamine B label was incubated with increasing concentrations of either RP-Tag Large (see Sequence 2) or Bovine Serum Albumin (BSA) in 50 mM Tris pH 8.0, 150 mM NaCl, 10 mM 2-mercaptoethanol, and 0.005% Tween 20 for 5 min in black 96-well plates at room temperature.
# Anisotropy was then measured, and a Kd calculated by fitting the data to the equation f=y0+(ymax−y0)*(Ptot+x+Kd−sqrt((Ptot+x+Kd)^2−4*Ptot*x))/(2*Ptot), where y0 is the baseline anisotropy, ymax is the maximum anisotropy, Ptot is the fixed concentration of labeled peptide used, x is the variable concentration of protein used, and Kd is the measured Kd.
# The indicated concentrations of RPtag (large) and an anti-His tag antibody (4E3D10H2/E3 purchased from ThermoFisher Scientific) were incubated with 1 nM rhodamine labeled native RPtag (small) peptide and 6×His peptide (Rhodamine-GHHHHHH), respectively, and fluorescence anisotropy measured. BSA incubated with native rhodamine labeled RPtag(small) is included as a control for non-specific binding. Kd's were calculated according to the equation f=y0+(ymax−y0)*(Ptot+x+Kd−sqrt((Ptot+x+Kd)^2−4*Ptot*x))/(2*Ptot), where y0 is the baseline anisotropy, ymax is the maximum anisotropy, Ptot is the fixed concentration of labeled peptide used, x is the variable concentration of protein used, and Kd is the measured Kd. We measured a Kd of 0.2±0.1 nM for RPtag(large) binding RPtag(small), and a Kd of 6±1 nM for the antibody/6×His tag pair.
# Regarding the studies shown in FIG. 14, increasing concentrations of unlabeled RPtag large with the indicated mutations (native, f137d, and f137e) were incubated for 1 h with 1 nM rhodamine labeled RPtag small peptide and the fluorescence anisotropy was measured. Resultant curves were fit with the equation f=y0+(ymax−y0)*(Ptot+x+Kd−sqrt((Ptot+x+Kd)^2−4*Ptot*x))/(2*Ptot), where y0 is the baseline anisotropy, ymax is the maximum anisotropy, Ptot is the fixed concentration of labeled peptide used, x is the variable concentration of protein used, and Kd is the measured Kd. Data are presented here as Ka=1/Kd. Log transformed Ka's were then compared by one-way ANOVA with Holm-Sidak post hoc correction. ***p<0.001, **p<0.01, *p<0.05. data are mean±SEM (n=3-4). Buffer was 50 mM Tris pH 8.0, 0.005% tween20. Proteins were expressed and purified by single step NiNTA chromatography as before. Peptides were synthesized solid-state and handled as previous.
# [2] = system: RPtag (large); assay: Association/dissociation kinetics of RPtag (small) peptides with RPtag (large) by fluorescence anisotropy; format: binding, Thermoanaerobacter tengcongensis; conditions: for koff: LS dissociation, unlabeled competitor peptide; for kf: S to S* forward rate constant; for kr: S* to S reverse rate constant, calculated from Keq and kf; for kon (M^−1 min^−1 ) (×10^7): S*-LS transition, calculated from measured koff and Kd
# Method: Panel a depicts representative association rate kinetics traces varying native RPtag small. Rhodamine labeled RPtag small at the indicated concentration was incubated with unlabeled RPtag large and the association measured by fluorescence anisotropy. L-S complex concentration was calculated by the equation (r−rmin)/(rmax−rmin)*[S] where r is the measured anisotropy, rmin is the anisotropy in the absence of any RPtag large, rmax is the anisotropy measured in the presence of at saturating RPtag large, and [S] is the total concentration of RPtag small used in the experiment. […] Dashed cyan lines are simulations of the mechanism shown in f using the rate constants detailed herein. The concentrations in the simulations were multiplied by a correction factor of 0.925, which is well within the 90% purity specification of the purchased peptide.
# LS complex was performed by incubating 1000 nM RPtag large with the indicated concentrations of rhodamine labeled RPtag small. At the start of the experiment, 0.1 mM unlabeled native RPtag small was added and fluorescence anisotropy monitored. Data processing was done as in panel a, except the red fits were to the single exponential decay equation y=y0+A*exp(−b*t). As expected, the initial dissociation rates were linear with respect to the LS complex.
# Fitting to a line yields a rate constant (koff)=0.0091 min^−1 (FIG. 9 panel e). In good agreement, when the kinetics are fit with a first order rate law, a rate constant of 0.012±0.002 min^−1 (n=15) was observed. […] Panel e is a graph of the initial rates of the traces represented in d. Slope of the fit line is 0.0091 min^−1. Data are mean±SE (n=3).
# The library of mutant RPtag(small) peptides, described above, was next analyzed to measure off rates (koff). The on rate was also calculated from measured koff and Kd (S*-LS transition), except instead of using unlabeled native peptide as the competitor, we used unlabeled Nd2,P5A,E18A (the tightest binding RPtag(small) peptide identified). […] However, there were notable exceptions. […] This indicates, without wishing to be limited, that P5 may constrain the structure of the peptide. The increased flexibility imparted to the peptide by the P5A mutation may decrease the energy barrier required for binding/unbinding.
compound,measurement,setting,value
GEKIPNFIPAELKLITKENV [Cd1],Kd,[1],550 ± 40 pM
same,koff,[2],0.000102 ± 1e-05 s⁻¹
same,kf,[2],0.10 ± 0.01 min⁻¹
same,kr,[2],0.042 ± 0.007 min⁻¹
same,kon (M^−1 min^−1 ) (×10^7),[2],1.1 ± 0.1 ×10^7 M^−1 min^−1
CC[C@H](C)[C@H](NC(=O)[C@H](CC(C)C)NC(=O)[C@H](CCCCN)NC(=O)[C@H](CC(C)C)NC(=O)[C@H](CCC(=O)O)NC(=O)[C@H](C)NC(=O)[C@@H]1CCCN1C(=O)[C@@H](NC(=O)[C@H](Cc1ccccc1)NC(=O)[C@H](CC(N)=O)NC(=O)[C@@H]1CCCN1C(=O)[C@@H](NC(=O)[C@H](CCCCN)NC(=O)[C@H](CCC(=O)O)NC(=O)[C@H](C)N)[C@@H](C)CC)[C@@H](C)CC)C(=O)N[C@H](C(=O)N[C@@H](CCCCN)C(=O)N[C@@H](CCC(=O)O)C(=O)N[C@@H](CC(N)=O)C(=O)N[C@H](C(=O)N[C@@H](CCC(N)=O)C(=O)O)C(C)C)[C@@H](C)O [g1a],Kd,[1],290 ± 30 pM
same,koff,[2],7.83e-05 ± 5e-06 s⁻¹
same,kf,[2],0.086 ± 0.004 min⁻¹
same,kr,[2],0.037 ± 0.001 min⁻¹
same,kon (M^−1 min^−1 ) (×10^7),[2],1.6 ± 0.1 ×10^7 M^−1 min^−1
"GEKIPNFIPAELKLITKENVQ [n19a, RPtag(small) with N19 changed to alanine]",Kd,[1],260 ± 20 pM
same,koff,[2],0.000617 ± 5e-05 s⁻¹
same,kf,[2],0.089 ± 0.003 min⁻¹
same,kr,[2],0.057 ± 0.008 min⁻¹
same,kon (M^−1 min^−1 ) (×10^7),[2],14 ± 1 ×10^7 M^−1 min^−1
GEKIPNFIAPELALITKENVQ [k13a],Kd,[1],1100 ± 100 pM
same,koff,[2],0.0003 ± 1.7e-05 s⁻¹
same,kon (M^−1 min^−1 ) (×10^7),[2],1.7 ± 0.1 ×10^7 M^−1 min^−1
GAKIPNFIPAELKLITKENVQ [e2a],effect of alanine mutation on binding affinity to RPtag(large),[1],significantly increased binding affinity
same,koff,[2],8.83e-05 ± 1.2e-05 s⁻¹
same,kon (M^−1 min^−1 ) (×10^7),[2],5.1 ± 0.7 ×10^7 M^−1 min^−1
"AIANFIPAELKLITKANVQ [Nd2, k3a, e18a]",Kd,[1],880 ± 10 pM
same,koff,[2],0.000533 ± 1.7e-05 s⁻¹
same,kon (M^−1 min^−1 ) (×10^7),[2],2.6 ± 0.1 ×10^7 M^−1 min^−1
"GEKIPNFIPAELKLITKENVQ [v20a, RPtag(small) with V20 changed to alanine]",Kd,[1],180 ± 30 pM
same,koff,[2],0.0002 ± 1.7e-05 s⁻¹
same,kf,[2],0.073 ± 0.003 min⁻¹
same,kon (M^−1 min^−1 ) (×10^7),[2],6.8 ± 0.5 ×10^7 M^−1 min^−1
"FIPAELKLITK [Nd6, Cd4, FIPAELKLITK]",Kd,[1],9900 ± 1100 pM
same,koff,[2],>0.033 s⁻¹
GEKIPNFIPAELKLITKANVQ [e18a],effect of alanine mutation on binding affinity to RPtag(large),[1],significantly increased binding affinity
same,koff,[2],0.000145 ± 6.7e-06 s⁻¹
same,kon (M^−1 min^−1 ) (×10^7),[2],16 ± 0.8 ×10^7 M^−1 min^−1
